The record followed here is article PMC9027599, “Secondary Metabolites in Basil, Bio-Insecticide, Inhibition Effect, and In Silico Molecular Docking against Proteolytic Enzymes of the Red Palm Weevil (Rhynchophorus ferrugineus)” (Plants, 2022).

For assay [1], the system named is trypsin-like serine proteinase. Description: Trypsin-like activity of midgut from larvae treated 24 h (in vivo). Set-up: species or system Rhynchophorus ferrugineus. As to conditions: midgut of fourth instar larvae treated for 24 h. The protocol:
(§1) The midguts were homogenized in the assay buffer (100 mM Tris-HCl, pH 8.1) and centrifuged for 30 min at 8000 rpm (Sigma 3K 30, rotors No. 12158). […] […] (100 mg/mL in DMF), BAρNA (100 mg/mL in DMSO), and […] (100 mg/mL in DMF) stock substrates were diluted in the assay buffer to 1 mg/mL, and substrate volume was 50 μL. […] The activity was quantified using an ELISA plate reader at a wavelength of 405 nm. As an empty well, an assay combination containing a denaturation enzyme was utilized instead of an active enzyme. […] To learn more about the proteases found in homogenate preparations of R. ferrugineus fourth midgut larval instars, inhibitors from many different types of mechanisms were used. […] As a control, an assay combination devoid of inhibitors was utilized. The absorbance of the enzymes was determined using an ELISA plate quick reader at various wavelengths. The percentage activity of the control enzyme for each inhibitor was evaluated for each enzyme. […] Larvae were exposed for 24 h to leaf discs treated with extract and compounds.

The next assay has as its target cysteine protease. Kind of assay: Cysteine proteinase activity, Z-Phe-Arg-MNA (in vitro). Type of assay: biochemical, Rhynchophorus ferrugineus. To be noted: fourth instar larvae midgut homogenate. The protocol: The activity of cysteine proteinase was determined in the fourth midgut instar larval homogenate of R. ferrugineus using the substrate Z-Phe-Arg-MNA [1]. Ten larvae were carefully removed, dissected, and rinsed repeatedly with NaCl solution (0.9% (w/v). The midgut instar was homogenized in protease assay buffer (500 µL) [5 mM DTT, 50 mM HEPS (N-2-Hydroxyethyl piperazin-N’-2-ethanesulfonic acid), pH 8.0, and 0.1 percent Triton X-100]. The reaction mixture was centrifuged for 30 min at 5000 rpm (Sigma 3k30 cooling centrifuge). The supernatant was utilized to determine the overall activity of proteolytic enzymes and the protein content. The supernatant (10 µL) was incubated for 30 min at 37 °C, and the volume was adjusted to 60 µL using assay buffer (pH 8) before adding 100 µL of substrate (0.5 mM). Prior to adding the substrate, 10 µL enzyme samples were pre-incubated with iodoacetic acid for 10 min. After 60 min at 37 °C of mixture incubation, the reaction was halted with the addition of 1.5 mL mersalyl (5 mM), 0.02 mg/mL fast garnet reactive solution, and 2% Tween 20. The reaction was centrifuged (at 5000 rpm, 6 min), then the absorbance was determined (at 520 nm). The activity of cysteine proteinase was measured using an ELISA quick plate reader at the OD520/60 min/mg of midgut protein. As a blank, a test mixture devoid of enzyme was used. […] The fourth homogenates of midgut larval were produced as reported before in the experiment for determining enzyme activity. As previously disclosed, the inhibitory experiment was performed using a microplate assay. A series of inhibitor concentrations was created to determine the inhibitor’s maximal inhibitory effect. Leupeptin concentrations of 0.01, 0.05, 0.1, and 1.0 mM, PMSF concentrations of 0.1, 1.0, 10, and 50 mM, TLCK and TPCK concentrations of 0.01, 0.05, 0.1, 1, 50, and 100 mM, EDTA concentrations of 0.1, 1, 10, 50, and 100 mM, and iodoacetic acid concentrations of 0.01, 0.05, 0.1, and 1 mM.
As a control, an assay combination devoid of inhibitors was utilized. The absorbance of the enzymes was determined using an ELISA plate quick reader at various wavelengths. The percentage activity of the control enzyme for each inhibitor was evaluated for each enzyme. Protease activity was assayed in vivo in the R. ferrugineus fourth midgut larval instars, which were treated with 1, 10, 50, 100, 500, 1000, and 5000 mg/L of extracts or compounds, measured as described above. Larvae were exposed for 24 h to leaf discs treated with extract and compounds.

The test system of the next assay is total proteases. Description: Total proteolytic activity of fourth instar midgut homogenate, azocasein (in vitro). It counts as biochemical, Rhynchophorus ferrugineus. To be noted: fourth instar larvae midgut homogenate. As for the experimental part: The Lowry technique was used to determine the protein concentrations. Total proteolytic activity was determined in the fourth midgut instar larval (lab strain) homogenate of R. ferrugineus with azocasein in accordance with […] et al. […] [70]. […] Using a Sigma 3k30 cooling centrifuge, reserve homogenates prepared in a previous stage were spun at 5000 rpm for 30 min. Estimates of protein content and total proteolytic enzyme activity were made using the supernatants. The supernatant (10 μL) was incubated at 37 °C for 20 min, and the volume was adjusted to 60 μL using an assay buffer (pH 8), before adding azocasien (200 μL, 2% (w/v)). […] Following that, to activate the reaction, the substrate was introduced 20 min for Leupeptin, so the reaction was halted after 180 min at 37 °C with 300 μL of cool tri-chloroacetic acid (TCA) (10% (v/v). The mixture was centrifuged for 20 min at 5000 rpm (Sigma 3k30 cooling centrifuge). […] To learn more about the proteases found in homogenate preparations of R. ferrugineus fourth midgut larval instars, inhibitors from many different types of mechanisms were used. […] As a control, an assay combination devoid of inhibitors was utilized. The absorbance of the enzymes was determined using an ELISA plate quick reader at various wavelengths. The percentage activity of the control enzyme for each inhibitor was evaluated for each enzyme. […] Larvae were exposed for 24 h to leaf discs treated with extract and compounds.

For assay [2], the target named is trypsin-like serine proteinase. Kind of assay: Serine proteinase microplate assay, BApNA (in vitro). Type of assay: biochemical, Rhynchophorus ferrugineus. As to conditions: fourth instar larvae midgut homogenate. The protocol:
as §1, with “The specific activities of serine proteinase were determined using a rapid quick microplate assay with substrates in reaction mixtures (150 μL) including a serine protease assay buffer, according to […] et al. and Olga et al. with modifications. The midguts” for “The midguts”

Take `O=C(O)C[C@H](C(=O)O)[C@@H](O)C(=O)O` [Isocitric acid]: in assay [1], the “IC50 against trypsin-like serine proteinase (in vivo)” value (“IC50 … (in vivo)” for short) is recorded as 314.8 µg/mL. Besides, on cysteine protease, the “IC50 against cysteine protease (in vitro)” value turned out to be 119.1 µg/mL. Also, the “IC50 against total proteases (in vitro)” value in the assay with total proteases is reported as 143.3 µg/mL.

Consider `O=C(/C=C/c1ccc(O)c(O)c1)O/C=C\c1ccc(O)c(O)c1` [Nepetoidin B], for which the “IC50 … (in vivo)” value in assay [1] amounted to 102.7 µg/mL. Besides, the “IC50 against trypsin-like serine proteinase (in vitro)” value in assay [2] is on record as 86.7 µg/mL. Further, the “IC50 against cysteine protease (in vitro)” value on cysteine protease is 63.3 µg/mL. Also, in the assay with total proteases, the “IC50 against total proteases (in vitro)” value was 102.4 µg/mL.

For `C[C@@H]1O[C@@H](OC[C@H]2O[C@@H](Oc3c(-c4ccc(O)c(O)c4)oc4cc(O)cc(O)c4c3=O)[C@H](O)[C@@H](O)[C@@H]2O)[C@H](O)[C@H](O)[C@H]1O` [Quercetin-3-O-rutinoside], the “IC50 … (in vivo)” value in assay [1] stood at 325.5 µg/mL. For the same compound, in assay [2], the “IC50 against trypsin-like serine proteinase (in vitro)” value came to 104.5 µg/mL. The “IC50 against cysteine protease (in vitro)” value at cysteine protease was found to be 53.6 µg/mL. Further, the “IC50 against total proteases (in vitro)” value with total proteases turned out to be 82.6 µg/mL.

For `O=C(/C=C/c1ccc(O)c(O)c1)O[C@H](Cc1ccc(O)c(O)c1)C(=O)O` [Rosmarinic acid], the “IC50 … (in vivo)” value in assay [1] is 174.6 µg/mL. Moreover, the “IC50 against trypsin-like serine proteinase (in vitro)” value in assay [2] is listed as 91.3 µg/mL. For the same compound, the “IC50 against cysteine protease (in vitro)” value at cysteine protease is on record as 67.8 µg/mL. Moreover, the “IC50 against total proteases (in vitro)” value in the assay with total proteases came out at 109.6 µg/mL.

For the compound `COc1ccc(-c2cc(=O)c3c(O)c(OC)c(OC)cc3o2)cc1` [Salvigenin, 5-Hydroxy-6,7,4′-trimethoxyflavone], the “IC50 … (in vivo)” value in assay [1] was 241.2 µg/mL. Also, the “IC50 against trypsin-like serine proteinase (in vitro)” value in assay [2] stood at 59.2 µg/mL. For the same compound, the “IC50 against cysteine protease (in vitro)” value on cysteine protease came to 89.6 µg/mL. Besides, the “IC50 against total proteases (in vitro)” value in the assay on total proteases worked out at 72.4 µg/mL.

Consider “dicaffeoyl-tartaric acid [Chicoric acid]”, for which, in assay [1], the “IC50 … (in vivo)” value is 75.1 µg/mL. Moreover, the “IC50 against trypsin-like serine proteinase (in vitro)” value in assay [2] is 51.6 µg/mL. The “IC50 against cysteine protease (in vitro)” value on cysteine protease came to 81.2 µg/mL. In the assay on total proteases, the “IC50 against total proteases (in vitro)” value stood at 63.1 µg/mL.
